In DBAASP:
Values after ≈ are worked out from the molar mass of the structure shown. One block for each molecule: values may come before it.

Key:
Test in all cases: ≥ marks a high value that may be exact or a test limit, other limits are often not marked, values filed in µg/mL are converted to µM
Bacillus cereus JCM 2152 = test system: Bacillus cereus JCM 2152
[1] = test system: Candida albicans JCM 2085
[2] = test system: Staphylococcus aureus JCM 2874
[3] = test system: Bacillus cereus ATCC 14579
[4] = test system: Bacillus subtilis ATCC 23857
[5] = test system: Candida albicans ATCC 90028
[6] = test system: Cryptococcus neoformans ATCC 28957
[7] = test system: Escherichia coli ATCC 25922
[8] = test system: Fusarium oxysporum f.sp. vasinfectum
Fusarium oxysporum = test system: Fusarium oxysporum
Fusarium solani = test system: Fusarium solani
[9] = test system: Pectobacterium carotovorum
[10] = test system: Pseudomonas aeruginosa ATCC 27853
[11] = test system: Pseudomonas syringae pv. tabaci
Ramulariopsis gossypii = test system: Ramulariopsis gossypii
Rhizoctonia solani = test system: Rhizoctonia solani
[12] = test system: Staphylococcus aureus ATCC 25923
Trichoderma asperellum = test system: Trichoderma asperellum
[13] = test system: Xanthomonas campestris pv. citri
Escherichia coli K-12 = test system: Escherichia coli K-12
Klebsiella pneumoniae = test system: Klebsiella pneumoniae
[14] = test system: Pseudomonas aeruginosa PA-W1
[15] = test system: Pseudomonas aeruginosa PAO1
[16] = test system: Staphylococcus aureus NCTC 8325-4
Staphylococcus aureus = test system: Staphylococcus aureus
[17] = test system: Bacillus subtilis CGMCC 1.3376
[18] = test system: Escherichia coli CGMCC 1.8732
[19] = test system: Klebsiella pneumoniae CGMCC 1.1736
[20] = test system: Pseudomonas aeruginosa CGMCC 1.2421
[21] = test system: Staphylococcus aureus CGMCC 1.8721
[22] = test system: Staphylococcus epidermidis CGMCC 1.4260
[23] = test system: Acinetobacter baumannii Q12-0809
[24] = test system: Acinetobacter baumannii Q12-0867
[25] = test system: Acinetobacter baumannii Q13-0717
Acinetobacter baumannii = test system: Acinetobacter baumannii
[26] = test system: Campylobacter jejuni NCTC 11351
Campylobacter jejuni = test system: Campylobacter jejuni
[27] = test system: Enterococcus faecalis JH-2-2
Escherichia coli = test system: Escherichia coli
[28] = test system: Klebsiella pneumoniae ATCC 700603
[29] = test system: Klebsiella pneumoniae NCTC 13442
[30] = test system: Klebsiella pneumoniae Q14-0095
[31] = test system: Klebsiella pneumoniae Q14-0146
[32] = test system: Listeria monocytogenes NCTC 11994
[33] = test system: Pseudomonas aeruginosa Q14-0208
[34] = test system: Pseudomonas aeruginosa Q14-0890
[35] = test system: Salmonella typhimurium SL1344
[36] = test system: Staphylococcus aureus ATCC 29213
[37] = test system: Staphylococcus aureus MRSA-15
[38] = test system: Staphylococcus aureus NCTC 12493
[39] = test system: Staphylococcus aureus Q14-0320
[40] = test system: Staphylococcus aureus Q14-0325
[41] = test system: Staphylococcus aureus RN4220

Compound: CC[C@H](C)[C@H](NC(=O)[C@H](CCCCN)NC(=O)[C@H](CO)NC(=O)[C@@H](NC(=O)[C@H](CC(C)C)NC(=O)[C@H](CO)NC(=O)[C@@H]1CCCN1C(=O)[C@H](CC(C)C)NC(=O)[C@H](Cc1ccccc1)NC(=O)[C@H](CC(N)=O)NC(=O)[C@H](C)NC(=O)[C@H](CC(C)C)NC(=O)[C@H](C)NC(=O)CNC(=O)[C@@H](NC(=O)[C@@H](NC(=O)[C@H](CO)NC(=O)CNC(=O)[C@H](Cc1ccccc1)NC(=O)[C@@H](N)Cc1ccccc1)[C@@H](C)O)[C@@H](C)CC)[C@@H](C)CC)C(=O)N[C@@H](CCCN=C(N)N)C(=O)N[C@@H](CC(N)=O)C(N)=O [FFGSTIGALANFLPSLISKIRN]
MIC (Bacillus cereus JCM 2152): 6.76 µM (≈ 16 µg/mL)
MIC [1]: 27 µM (≈ 64 µg/mL)
MIC [2]: 27 µM (≈ 64 µg/mL)

Compound: CC[C@H](C)[C@H](NC(=O)[C@H](CO)NC(=O)CNC(=O)[C@@H](NC(=O)[C@@H](N)CCCN=C(N)N)[C@@H](C)CC)C(=O)N[C@@H](CC(C)C)C(=O)NCC(=O)N[C@@H](C)C(=O)N[C@@H](CC(C)C)C(=O)N[C@@H](C)C(=O)N[C@@H](CCCCN)C(=O)NCC(=O)N[C@@H](CC(C)C)C(=O)N1CCC[C@H]1C(=O)N[C@H](C(=O)N[C@@H](CC(C)C)C(=O)N[C@H](C(=O)N[C@@H](CO)C(=O)N[C@@H](Cc1c[nH]c2ccccc12)C(=O)N[C@H](C(=O)N[C@@H](CCCCN)C(=O)N[C@@H](CC(N)=O)C(=O)N[C@@H](CCCN=C(N)N)C(N)=O)[C@@H](C)CC)[C@@H](C)CC)[C@@H](C)O [RIGSILGALAKGLPTLISWIKNR]
MIC [17]: 6.25 µM (≈ 15.5 µg/mL)
MIC [18]: 12.5 µM (≈ 31 µg/mL)
MIC [19]: 12.5 µM (≈ 31 µg/mL)
MIC [20]: 6.25 µM (≈ 15.5 µg/mL)
MIC [21]: 6.25 µM (≈ 15.5 µg/mL)
MIC [22]: 3.13 µM (≈ 7.75 µg/mL)

Compound: CSCC[C@H](NC(=O)[C@@H](N)[C@@H](C)O)C(=O)N[C@@H](CO)C(=O)N[C@@H](CC(C)C)C(=O)N[C@@H](CCCN=C(N)N)C(=O)N[C@@H](Cc1ccccc1)C(=O)N[C@@H](Cc1c[nH]c2ccccc12)C(=O)N[C@@H](CCCN=C(N)N)C(=O)N[C@@H](Cc1c[nH]c2ccccc12)C(=O)N[C@@H](CCCCN)C(=O)N[C@H](C(=O)N[C@@H](CCCN=C(N)N)C(=O)O)C(C)C [TMSLRFWRWKVR]
MIC [23]: ≥ 38.4 µM
MIC [24]: 9.6 µM (≈ 16 µg/mL)
MIC [25]: 19.2 µM (≈ 32 µg/mL)
MIC (Acinetobacter baumannii): ≥ 76.8 µM
MIC [26]: ≥ 76.8 µM
MIC (Campylobacter jejuni): ≥ 76.8 µM
MIC [27]: ≥ 38.4 µM
MIC (Escherichia coli K-12): ≥ 38.4 µM
MIC (Escherichia coli): 76.8 µM (≈ 128 µg/mL)
MIC [28]: > 76.8 µM
MIC [29]: ≥ 76.8 µM
MIC [30]: ≥ 76.8 µM
MIC [31]: ≥ 76.8 µM
MIC [32]: ≥ 38.4 µM
MIC [10]: 76.8 µM (≈ 128 µg/mL)
MIC [15]: 38.4 µM (≈ 64 µg/mL)
MIC [33]: ≥ 76.8 µM
MIC [34]: ≥ 38.4 µM
MIC [35]: ≥ 38.4 µM
MIC [36]: 76.8 µM (≈ 128 µg/mL)
MIC [37]: ≥ 38.4 µM
MIC [38]: ≥ 38.4 µM
MIC [39]: ≥ 76.8 µM
MIC [40]: ≥ 76.8 µM
MIC [41]: ≥ 38.4 µM

Continued, values first:

MIC [3]: 3.33 µM (≈ 5.77 µg/mL)
MIC [4]: 1 µM (≈ 1.73 µg/mL)
MIC [5]: 8 µM (≈ 13.9 µg/mL)
MIC [6]: 4 µM (≈ 6.93 µg/mL)
MIC [7]: 2 µM (≈ 3.46 µg/mL)
MIC [8]: 4 µM (≈ 6.93 µg/mL)
MIC (Fusarium oxysporum): 4 µM (≈ 6.93 µg/mL)
MIC (Fusarium solani): 16 µM (≈ 27.7 µg/mL)
MIC [9]: 1 µM (≈ 1.73 µg/mL)
MIC [10]: 5.33 µM (≈ 9.23 µg/mL)
MIC [11]: 4 µM (≈ 6.93 µg/mL)
MIC (Ramulariopsis gossypii): 2 µM (≈ 3.46 µg/mL)
MIC (Rhizoctonia solani): 16 µM (≈ 27.7 µg/mL)
MIC [12]: 4 µM (≈ 6.93 µg/mL)
MIC (Trichoderma asperellum): 16 µM (≈ 27.7 µg/mL)
MIC [13]: 1 µM (≈ 1.73 µg/mL)
Compound: CC(C)C[C@H](NC(=O)[C@H](C)NC(=O)[C@H](CC(C)C)NC(=O)[C@@H](NC(=O)[C@H](C)NC(=O)[C@H](CCCCN)NC(=O)[C@H](CC(C)C)NC(=O)[C@H](CC(C)C)NC(=O)[C@@H](NC(=O)[C@H](Cc1cnc[nH]1)NC(=O)[C@@H](NC(=O)[C@H](CCCCN)NC(=O)[C@H](CO)NC(=O)[C@H](CC(C)C)NC(=O)[C@@H](NC(=O)[C@@H](N)CCCCN)C(C)C)C(C)C)[C@@H](C)O)C(C)C)C(N)=O [KVLSKVHTLLKAVLAL]

MIC (Escherichia coli K-12): 7.81 µM (≈ 11.4 µg/mL)
MIC (Klebsiella pneumoniae): 31.3 µM (≈ 45.9 µg/mL)
MIC [14]: 15.6 µM (≈ 22.9 µg/mL)
MIC [15]: 7.81 µM (≈ 11.4 µg/mL)
MIC [16]: 15.6 µM (≈ 22.9 µg/mL)
MIC (Staphylococcus aureus): 62.5 µM (≈ 91.6 µg/mL)
Compound: CC(C)C[C@H](NC(=O)[C@H](CCCCN)NC(=O)[C@H](CCCCN)NC(=O)[C@H](CC(C)C)NC(=O)[C@H](CC(C)C)NC(=O)[C@H](CCCCN)NC(=O)[C@H](CCCCN)NC(=O)[C@H](CC(C)C)NC(=O)[C@H](CC(C)C)NC(=O)[C@H](CCCCN)NC(=O)[C@H](CCCCN)NC(=O)[C@@H](N)CC(C)C)C(N)=O [LKKLLKKLLKKL]
